Results from US7138361B2, “Herbicidal heterocycles” (E. I. du Pont de Nemours and Company, priority 2000, dated 2006).

Columns and labels:
Experiment in all cases: Test C preemergence
Format in all cases: in vivo
Sunflower [1] = conditions: Rate 250 g/ha, scale 0 to 100, 0 no effect, 100 complete control
[2] = system: yellow nutsedge (Cyperus esculentus)
In short: (§1)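 Compounds in non-phytotoxic solvent with surfactant applied preemergence to planted seeds and postemergence to plants at 1- to 4-leaf stage (2–18 cm). Kept in greenhouse 12–14 days, then visually rated against controls on a 0 (no effect) to 100 (complete control) scale.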

[3] = system: crabgrass (Digitaria sanguinalis); conditions: for Plant response rating (0 to 100), Crabgrass: visual evaluation after 12 to 14 days
In short: as §1

[4] = system: goosegrass (Eleusine indica); conditions: for Plant response rating (0 to 100), Goosegrass: visual evaluation after 12 to 14 days
In short: as §1

corn (Zea mays) = conditions: for Plant response rating (0 to 100), Corn: visual evaluation after 12 to 14 days
In short: as §1

[5] = system: woolly cupgrass (Eriochloa villosa); conditions: for Plant response rating (0 to 100), Cupgrass, Woolly: visual evaluation after 12 to 14 days
In short: as §1

[6] = system: bermudagrass (Cynodon dactylon); conditions: for Plant response rating (0 to 100 where 0 is no effect and 100 is complete control), Bermudagrass: visual evaluation after 12 to 14 days
In short: as §1

[7] = system: johnsongrass (Sorghum halepense); conditions: for Plant response rating (0 to 100), Johnsongrass: preemergence, visual evaluation after 12 to 14 days
In short: as §1

[8] = system: morningglory (Ipomoea hederacea)
In short: as §1

[9] = system: cocklebur (Xanthium strumarium); conditions: for Plant response rating (0 to 100), Cocklebur: visual evaluation after 12 to 14 days
In short: as §1

[10] = system: velvetleaf (Abutilon theophrasti)
In short: as §1

Sunflower [11] = conditions: Rate 125 g/ha; scale 0 to 100, 0 no effect, 100 complete control
soybean (Glycine max) = system: soybean (Glycine max)
In short: as §1

[12] = system: pigweed (Amaranthus retroflexus)
In short: as §1

[13] = system: common ragweed (Ambrosia elatior)
In short: as §1

[14] = system: lambsquarters (Chenopodium album)
In short: as §1

[15] = system: Surinam grass (Brachiaria decumbens); conditions: for Plant response rating (0 to 100), Surinam grass: visual evaluation after 12 to 14 days
In short: as §1

[16] = system: giant foxtail (Setaria faberii); conditions: for Plant response rating (0 to 100), Foxtail, Giant: visual evaluation after 12 to 14 days
In short: as §1

Nightshade = system: Nightshade
kochia (Kochia scoparia) = conditions: for Plant response rating (0 to 100), Kochia: visual evaluation after 12 to 14 days
In short: as §1

[17] = Rate 125 g/ha, scale 0 to 100, 0 no effect, 100 complete control
[18] = preemergence, Rate 62 g/ha, scale 0 to 100
[19] = preemergence, Rate 500 g/ha, visual evaluation after 12 to 14 days
[20] = preemergence, Rate 250 g/ha, scale 0 to 100, 0 no effect, 100 complete control

COc1cc(N2CCC(n3ccc(C(C)C)n3)C2=O)ccc1C (stereo not drawn) [Compound 85]
Plant response rating, Sunflower (Sunflower [1]): 70
Plant response rating, Nutsedge [2, 17]: 70
Plant response rating, Nutsedge [2, 18]: 50
Plant response rating (0 to 100), Nutsedge [2, 19]: 90
Plant response rating, Nutsedge [2, 20]: 70
Plant response rating, Crabgrass [3, 17]: 100
Plant response rating, Crabgrass [3, 18]: 100
Plant response rating (0 to 100), Crabgrass ([3]; preemergence, Rate 250 g/ha): 100
Plant response rating (0 to 100), Crabgrass ([3]; preemergence, Rate 500 g/ha): 100
Plant response rating, Goosegrass [4, 17]: 100
Plant response rating, Goosegrass [4, 18]: 20
Plant response rating (0 to 100), Goosegrass ([4]; preemergence, Rate 250 g/ha): 100
Plant response rating (0 to 100), Goosegrass ([4]; preemergence, Rate 500 g/ha): 100
Plant response rating, Corn (corn (Zea mays); [17]): 30
Plant response rating, Corn (corn (Zea mays); [18]): 30
Plant response rating (0 to 100), Corn (corn (Zea mays); preemergence, Rate 250 g/ha): 60
Plant response rating (0 to 100), Corn (corn (Zea mays); preemergence, Rate 500 g/ha): 80
Plant response rating, Cupgrass, Woolly [5, 17]: 100
Plant response rating, Cupgrass, Woolly [5, 18]: 100
Plant response rating (0 to 100), Cupgrass, Woolly ([5]; preemergence, Rate 250 g/ha): 100
Plant response rating (0 to 100), Cupgrass, Woolly ([5]; preemergence, Rate 500 g/ha): 100
Plant response rating, Bermudagrass [6, 17]: 100
Plant response rating, Bermudagrass [6, 18]: 100
Plant response rating (0 to 100 where 0 is no effect and 100 is complete control), Bermudagrass ([6]; preemergence, Rate 250 g/ha): 100
Plant response rating (0 to 100 where 0 is no effect and 100 is complete control), Bermudagrass ([6]; preemergence, Rate 500 g/ha): 100
Plant response rating, Johnsongrass [7, 17]: 50
Plant response rating (0 to 100), Johnsongrass ([7]; Rate 250 g/ha): 80
Plant response rating (0 to 100), Johnsongrass ([7]; Rate 500 g/ha): 100
Plant response rating, Morningglory [8, 17]: 90
Plant response rating, Morningglory [8, 18]: 50
Plant response rating (0 to 100), Morningglory [8, 19]: 100
Plant response rating, Morningglory [8, 20]: 90
Plant response rating, Cocklebur [9, 17]: 60
Plant response rating, Cocklebur [9, 18]: 60
Plant response rating (0 to 100), Cocklebur ([9]; preemergence, Rate 250 g/ha): 60
Plant response rating (0 to 100), Cocklebur ([9]; preemergence, Rate 500 g/ha): 60
Plant response rating, Velvetleaf [10, 17]: 70
Plant response rating, Velvetleaf [10, 18]: 70
Plant response rating (0 to 100), Velvetleaf [10, 19]: 100
Plant response rating, Velvetleaf [10, 20]: 80
Plant response rating, Sunflower (Sunflower [11]): 70
Plant response rating, Soybean (soybean (Glycine max); [17]): 40
Plant response rating, Soybean (soybean (Glycine max); [18]): 20
Plant response rating (0 to 100), Soybean (soybean (Glycine max); [19]): 100
Plant response rating, Soybean (soybean (Glycine max); [20]): 40
Plant response rating, Pigweed [12, 17]: 100
Plant response rating, Pigweed [12, 18]: 100
Plant response rating (0 to 100), Pigweed [12, 19]: 100
Plant response rating, Pigweed [12, 20]: 100
Plant response rating, Ragweed, Common [13, 17]: 100
Plant response rating, Ragweed, Common [13, 18]: 90
Plant response rating (0 to 100), Ragweed, Common [13, 19]: 100
Plant response rating, Ragweed, Common [13, 20]: 100
Plant response rating, Lambsquarters [14, 17]: 100
Plant response rating, Lambsquarters [14, 18]: 100
Plant response rating (0 to 100), Lambsquarters [14, 19]: 100
Plant response rating, Lambsquarters [14, 20]: 100
Plant response rating, Surinam grass [15, 17]: 30
Plant response rating, Surinam grass [15, 18]: 30
Plant response rating (0 to 100), Surinam grass ([15]; preemergence, Rate 250 g/ha): 100
Plant response rating (0 to 100), Surinam grass ([15]; preemergence, Rate 500 g/ha): 100
Plant response rating, Foxtail, Giant [16, 17]: 100
Plant response rating, Foxtail, Giant [16, 18]: 60
Plant response rating (0 to 100), Foxtail, Giant ([16]; preemergence, Rate 250 g/ha): 100
Plant response rating (0 to 100), Foxtail, Giant ([16]; preemergence, Rate 500 g/ha): 100
Plant response rating, Nightshade (Nightshade; Rate 62 g/ha, scale 0 to 100): 80
Plant response rating, Nightshade (Nightshade; [17]): 90
Plant response rating, Nightshade (Nightshade; Rate 250 g/ha, scale 0 to 100, 0 no effect, 100 complete control): 100
Plant response rating, Kochia (kochia (Kochia scoparia); [17]): 100
Plant response rating, Kochia (kochia (Kochia scoparia); [18]): 100
Plant response rating (0 to 100), Kochia (kochia (Kochia scoparia); preemergence, Rate 250 g/ha): 100
Plant response rating (0 to 100), Kochia (kochia (Kochia scoparia); preemergence, Rate 500 g/ha): 100
